Source: US5643884A, “Lupane triterpenoid derivatives” (Glycomed Incorporated, priority 1993, dated 1997)
≈ marks a conversion by molar mass, not a printed value.

Tests used:
[1] = system: P-388 lymphocytic leukemia cells; details: Choi et al, Planta Medica 1988; cited from earlier work
[2] = system: arachidonic acid (AA) induced ear swelling; test: arachidonic acid (AA), murine skin inflammation model (ear swelling); format: in vivo; details: topical, 1 mg, 90 minutes
Procedure: Arachidonic acid is known to induce an inflammatory response and the compounds were tested for their capacity to inhibit the response.
Briefly, the compounds at an appropriate concentration are dissolved in a suitable solvent, and applied to a rodent ear immediately following application of arachidonic acid (AA). A control of AA alone is run. About 90 minutes later a 6 mm disk of each ear is removed and weighed.
For comparison, betulinic acid was also tested. All compounds were dissolved at 50 mg/mL in CHCl3 :CH3 OH (1:1) and […] of each compound was applied two times to the ear, at about a 2 minute interval or the period of time it took for the solvent to evaporate from the ear, immediately following arachidonic acid (AA). A control of AA alone was run. Ninety minutes later a 6 mm disk of each ear was removed and weighed.

[3] = system: P-selectin; test: inhibition of P-selectin binding to HL-60 cells; format: cell-based, human HL-60 cells; details: read-out: IC50, P-selectin binding to HL-60 cells; P-selectin 200 ng/ml; 4° C., 1 hour
Procedure: Certain of the invention compounds were tested for their capacity to inhibit P-selectin binding to HL-60 cells, and to a chemical known to bind to P-selectin, 2,3 sLex. The following materials and procedures were used.
P-Selectin Detection Solutions. Goat F(ab')2 anti-human IgG (Fc spec.)-biotin and streptavidin-AP were diluted 1:1000 in 1% BSA-TBS with 1 mM Ca^++. An Elisa assay was utilized to measure P-selectin binding to 2,3 sLex, and P-selectin was added at 300 ng/ml. An Elisa assay was also used to assay for the capacity of the invention compounds to inhibit HL-60 cell binding to P-selectin. HL-60 cells were used, and P-selectin was added at 200 ng/ml.
2,3 sLex was coated at 30 pmoles/well to Probind microtiter plates for Elisa. The glycolipid was added at 50 μl/well in 50% MeOH and allowed to evaporate overnight. Elisa plates and HL-60 assay plates were blocked with 5% BSA-TBS Ca^++ for more than an hour at room temperature. The plates were washed with TBS without Ca^++.
HL-60 cells were harvested by centrifugation, washed with TBS no Ca^++, counted, and the density adjusted to 2×10^6 /ml in 1% BSA-TBS Ca^++.
Briefly, the assays were conducted as follows. […] DMF solutions were added directly to 1% BSA/TBS-Ca for dilutions through 0.5 mM. Lower concentrations were made in serial two-fold dilutions in BSA-TBS. […]

[4] = system: 5-lipoxygenase; details: Sotomatsu et al. 1959; Inoue et al. 1986; cited from earlier work
[5] = system: E-selectin; test: cancer cell adhesion to E-selectin (E-selectin chimera binding to fixed LS174T colon carcinoma cells); format: cell-based; details: lowest concentration from serial two-fold dilutions inhibiting by 50% or more, FIGS. 3 and 4
Procedure: The mixture is rotated briskly on a rotary platform at room temperature for about 30-60 minutes. Particulate matter is removed by centrifugation, and the soluble fraction is transferred onto 96-well microtiter plates containing glutaraldehyde fixed LS174T colon carcinoma cells. This cell line is known to adhere to E-selectin. After 60 minutes at 37° C., plates are washed and E-selectin chimera bound to cells is quantified by addition of pNPP substrate in 1M diethanolamine buffer containing 0.1 mg/ml MgCl2 at pH 9.8. Plates are developed in the dark and read at 405 nm. The IC50 values are calculated and are the lowest concentrations from serial two-fold dilutions (quadruplicate wells at each concentration) which inhibits cell binding by 50% or more relative to the control.
Experiments were conducted to determine the capacity of the invention compounds to interfere with the binding of cancer cells to E-selectin. The compounds are dissolved in dimethylformamide (DMF) prior to being assayed. […] After 60 minutes at 37° C., plates are washed and E-selectin chimera bound to cells is quantified by addition of pNPP substrate in 1M diethanolamine buffer containing 0.1 mg/ml MgCl2 at pH 9.8. Plates are developed in the dark and read at 405 nm. […]

[6] = system: ornithine decarboxylase; details: Yasukawa et al. 1991; cited from earlier work

Row | Structure (SMILES) | ED50 against P-388 lymphocytic leukemia cells [1] | % Inhibition of Swelling ([2]; first printed value of three separate experiments) | % Inhibition of Swelling ([2]; first printed value of three separate experiments, listed as Betulinic acid) | % Inhibition of Swelling ([2]; second printed value of three separate experiments) | % Inhibition of Swelling ([2]; third printed value of three separate experiments) | IC50 [3] | inhibition of enzymes involved in leukotriene biosynthesis, including 5-lipoxygenase [4] | IC50 [5] | inhibition of ornithine decarboxylase [6]
1 | C=C(C)[C@@H]1CC[C@]2(C(=O)O)CC[C@]3(C)[C@H](CC[C@@H]4[C@@]5(C)CC[C@H](OC(C)=O)C(C)(C)[C@@H]5CC[C@]43C)[C@@H]12 [betulinic acid 3-monoacetate] | 10.5 µg/mL (≈ 21.1 µM) | – | – | – | – | – | – | – | –
2 | C=C(C)[C@@H]1CC[C@]2(C(=O)O)CC[C@]3(C)[C@H](CC[C@@H]4[C@@]5(C)CC[C@H](O)C(C)(C)[C@@H]5CC[C@]43C)[C@@H]12 [betulinic acid] | – | ~0% | 0.0% | ~12.2% | ~25.9% | ~750 µM | capacity to inhibit enzymes involved in leukotriene biosynthesis, including 5-lipoxygenase | 60 µM | known inhibitor of ornithine decarboxylase
3 | C=C(C)[C@@H]1CC[C@]2(C(=O)OC)CC[C@]3(C)[C@H](CC[C@@H]4[C@@]5(C)CC[C@H](O)C(C)(C)[C@@H]5CC[C@]43C)[C@@H]12 [betulinic acid methyl ester] | 6.8 µg/mL (≈ 14.4 µM) | – | – | – | – | – | – | – | –
